Measured values as given in patent publication US5919682A, “Overproduction of neuronal nitric oxide synthase” (Board of Regents, University of Texas System, priority 1995, dated 1999).
Several values for one entry are separate records, joined by “and”; a condition that tells them apart may be missing. Equal values may be shown once. Entries after “also recorded” stand apart in the source; their conditions may differ.

Key:
E. coli-expressed nNOS [1] = biological target: T1, E. coli-expressed nNOS (Rattus norvegicus, UniProt P29476); test: [3H]-NNA binding to purified E. coli-expressed nNOS by direct titration; parameters: made in house; host or cells: E. coli BL21 co-transformed with pNOSpCW and pGroELS
Experimental: Studies were performed as described in Example 4 using 10 pmole nNOS. Symbols are: circles, semi-purified E. coli-expressednNOS eluted from a 2'5'-ADP-Sepharose 4B column in the absence of BH4 during purification; triangles, purified E. coli-expressed nNOS purified in the presence of BH4 as described in Example 1; open symbols represent data from assays performed in the absence of additional BH4; filled symbols represent data from assays performed in the presence of 10 μM BH4.
The incubation was stopped by aspiration of the sample through the PVDF membrane. The wells were washed twice with 200 μl of 50 mM Tris, pH 7.6, air-dried for 10 minutes, 25 μl scintillation cocktail was added, and samples were counted.
Binding of N^ω -nitro-arginine to purified E. coli-expressed enzyme.

[2] = tested on: nNOS isolated from rat brain; conditions: read-out: Km for L-arginine; reported by Bredt and Snyder (1990); cited from earlier work
[3] = tested on: human kidney 293 cell-purified nNOS; test: Km analysis, nNOS from human kidney 293 cells; format: biochemical, rat; conditions: read-out: Km for L-arginine
Experimental: (§1) Enzymatic activity determined by the rate of NO. formation. […] L-citrulline from [^3 H] […] For Km analysis, the concentration of [^3 H]
These values are in excellent agreement with each other and with the Km value of 2 μM for nNOS reported by Bredt and Snyder (1990).

E. coli-expressed nNOS [4] = biological target: T1, E. coli-expressed nNOS; test: Absolute absorbance spectrum perturbation of nNOS; format: binding; parameters: made in house; host or cells: E. coli BL21 co-transformed with pNOSpCW and pGroELS; conditions: imidazole 1 mM; arginine 2 μM
Experimental: Studies were performed as described in Example 2 using 3.2 μM nNOS.
(§2) Spectrophotometric methods. Absolute spectra and CO difference spectra were performed essentially as described by McMillan and Masters (1993) with the exception that all measurements were performed in buffer B and the CO difference spectra were obtained by reducing the protein and then bubbling the sample cuvette with CO. Substrate perturbation difference spectra were performed as described (McMillan and Masters, 1993), but in the presence of 1 mM imidazole to shift the entire population of nNOS to the low spin heme state. The molar protein concentration was determined based on heme content and Δε444-475 =75 mM^1 (Stuehr and Ikeda-Saito, 1992; McMillan and Masters, 1995). All spectral analyses were performed using a Shimadzu Model 2101 UV/visible dual-beam spectrophotometer.

E. coli-expressed nNOS [5] = biological target: T1, E. coli-expressed nNOS; test: Substrate perturbation difference spectrophotometry (spectral binding); parameters: made in house; host or cells: E. coli BL21 co-transformed with pNOSpCW and pGroELS; conditions: 1 mM imidazole present; assuming Kd imidazole 160 μM; read-out: spectral binding constant (KS)
Experimental: Studies were performed as described in Example 2 using 1.5 μM nNOS in the presence of 1 mM imidazole.
as §2
(FIG. 2B), using the following:
apparent KS =KS (1+[Imidazole]/Kd imidazole).

[6] = Specific activity of nNOS (NO formation); format: biochemical
Text: as §1

nNOS = conditions: assumed value from McMillan and Masters, 1993, Wolff et al., read-out: Kd imidazole; cited from earlier work
E. coli-expressed nNOS [7] = biological target: T1, E. coli-expressed nNOS; conditions: purified nnos, 2 min
Experimental: Enzymatic activity determined by the rate of NO. formation. The rate of nitric oxide formation was measured using both the hemoglobin capture assay (Kelm and Schrader, 1990), performed at 25° C. as described by Sheta, et al. (1994), and the method of Bredt and Snyder (1990), which monitors the formation of [^3 H] L-citrulline from [^3 H] […] Each reaction mixture, containing 0.5 mg of enzyme, was incubated at 25° C. for 2 minutes (over which time the reaction is linear). For Km analysis, the concentration of [^3 H]
Enzymatic activity of purified E. coli-expressed enzyme.

T1 sequence (P29476 whole entry): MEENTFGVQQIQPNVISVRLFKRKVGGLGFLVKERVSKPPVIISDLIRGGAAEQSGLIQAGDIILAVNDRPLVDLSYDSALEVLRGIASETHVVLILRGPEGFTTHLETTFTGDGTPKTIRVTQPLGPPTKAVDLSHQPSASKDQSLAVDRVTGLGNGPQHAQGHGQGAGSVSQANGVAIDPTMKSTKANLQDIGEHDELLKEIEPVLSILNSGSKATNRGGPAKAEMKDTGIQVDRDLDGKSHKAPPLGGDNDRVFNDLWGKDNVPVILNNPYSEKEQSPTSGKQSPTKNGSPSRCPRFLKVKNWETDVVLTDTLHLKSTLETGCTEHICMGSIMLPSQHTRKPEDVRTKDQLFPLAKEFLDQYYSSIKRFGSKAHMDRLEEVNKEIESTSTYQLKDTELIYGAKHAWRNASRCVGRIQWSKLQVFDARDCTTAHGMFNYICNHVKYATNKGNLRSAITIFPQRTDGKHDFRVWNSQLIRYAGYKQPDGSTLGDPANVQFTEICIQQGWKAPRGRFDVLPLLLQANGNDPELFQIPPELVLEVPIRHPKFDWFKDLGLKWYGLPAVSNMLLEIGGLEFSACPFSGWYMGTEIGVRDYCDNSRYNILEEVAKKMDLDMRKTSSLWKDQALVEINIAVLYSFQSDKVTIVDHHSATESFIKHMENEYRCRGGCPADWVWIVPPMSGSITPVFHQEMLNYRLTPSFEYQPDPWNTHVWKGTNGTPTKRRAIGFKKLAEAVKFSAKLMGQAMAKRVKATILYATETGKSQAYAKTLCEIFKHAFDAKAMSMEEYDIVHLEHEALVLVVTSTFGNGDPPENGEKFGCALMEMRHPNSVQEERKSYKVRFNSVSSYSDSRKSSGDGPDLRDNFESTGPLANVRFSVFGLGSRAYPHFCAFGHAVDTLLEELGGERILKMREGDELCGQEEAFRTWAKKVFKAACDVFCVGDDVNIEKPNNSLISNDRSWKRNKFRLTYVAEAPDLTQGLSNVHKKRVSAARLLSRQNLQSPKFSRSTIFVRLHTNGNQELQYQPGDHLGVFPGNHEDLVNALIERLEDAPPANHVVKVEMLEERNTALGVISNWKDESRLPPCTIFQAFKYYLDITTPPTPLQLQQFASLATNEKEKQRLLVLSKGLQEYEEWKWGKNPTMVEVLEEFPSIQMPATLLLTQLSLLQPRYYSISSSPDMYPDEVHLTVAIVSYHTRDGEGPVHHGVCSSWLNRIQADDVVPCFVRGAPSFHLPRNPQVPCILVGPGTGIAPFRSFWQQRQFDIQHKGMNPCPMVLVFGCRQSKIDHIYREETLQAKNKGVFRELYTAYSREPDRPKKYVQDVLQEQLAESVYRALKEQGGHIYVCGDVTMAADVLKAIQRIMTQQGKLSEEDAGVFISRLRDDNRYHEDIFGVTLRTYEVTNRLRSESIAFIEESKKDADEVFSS

Molecule: N=C(NCCC[C@H](N)C(=O)O)N[N+](=O)[O-] [NNA, N^ω -nitro-L-arginine]
- Bmax (E. coli-expressed nNOS [1]; Fraction 1, (+) BH4): 0.54 pmol NNA/pmol nNOS
- Bmax (E. coli-expressed nNOS [1]; Fraction 1, (-) BH4): 0.078 pmol NNA/pmol nNOS
- Bmax (E. coli-expressed nNOS [1]; Fraction 2, (+) BH4): 0.69 pmol NNA/pmol nNOS
- Bmax (E. coli-expressed nNOS [1]; Fraction 2, (-) BH4): 0.67 pmol NNA/pmol nNOS
- binding of NNA to nNOS fraction 1 (E. coli-expressed nNOS [1]; fraction 1 (pre-BH4)): binds significantly to E. coli-expressed nNOS fraction 1 only in the presence of added BH4
- binding of NNA to nNOS fraction 2 (E. coli-expressed nNOS [1]; fraction 2 (65% BH4-saturated)): equally well in the presence or absence of added BH4

Molecule: N=C(N)NCCC[C@H](N)C(=O)O [L-arginine]
- Km [2]: 2000 nM and ~2000 nM
- Km [3]: 1900 nM and ~2000 nM
- shift of maximum heme absorbance at 400 nm (E. coli-expressed nNOS [4]): completely to the high spin form (peak at 395 nm)
- Kd (E. coli-expressed nNOS [5]): ~717 nM and 717 nM

Molecule: nNOS from JM109: nNOS co-expressed with groEL and groES in E. coli JM109, heavily proteolyzed upon cell lysis
- activity relative to nNOS purified from 293 cells ([6]; nNOS from E. coli JM109 co-expressing groEL and groES, heavily proteolyzed): 1%

Molecule: c1c[nH]cn1 [imidazole]
- shift of maximum heme absorbance at 400 nm (E. coli-expressed nNOS [4]): low spin form (peak at 428 nm)
- Kd (nNOS): 160 µM

Molecule: nNOS: rat neuronal NOS overexpressed in E. coli BL21 with chaperonins groEL and groES
- specific activity compared with mammalian (kidney 293) cell-expressed nNOS [6]: equal to or exceeding the activity of kidney 293 cell-derived enzyme; also recorded: at least as high as that of kidney 293 cell-expressed enzyme; also recorded: at least equal to or greater than the mammalian cell-expressed nNOS
- specific activity / turnover ([6]; E. coli-expressed nNOS, both hemoglobin capture and citrulline assays): 450 nmol/min/mg

Molecule: C[C@H](O)[C@H](O)[C@H]1CNc2nc(N)[nH]c(=O)c2N1 [BH4, (6R)-5, 6, 7, 8 tetrahydro-L-biopterin]
- stimulation of turnover by BH4, fraction 1 (E. coli-expressed nNOS [7]): 2.7 fold
- stimulation of turnover by BH4, fraction 2 (E. coli-expressed nNOS [7]): 2.3 fold
